We go through 25 compounds from US10196363B2, “Dihydropyrimidin-2-one compounds and medical use thereof” (JAPAN TOBACCO INC., priority 2014, dated 2019).

The target of one assay is T1, human RORγ (Homo sapiens, UniProt P51449).
T1 construct: human RORγ, from Ser253 to Lys518; expressed in transfected cells; host or cells: CHO cells (Chinese hamster ovary), transient co-transfection with pG5-Luc
T1 sequence (P51449 253-518): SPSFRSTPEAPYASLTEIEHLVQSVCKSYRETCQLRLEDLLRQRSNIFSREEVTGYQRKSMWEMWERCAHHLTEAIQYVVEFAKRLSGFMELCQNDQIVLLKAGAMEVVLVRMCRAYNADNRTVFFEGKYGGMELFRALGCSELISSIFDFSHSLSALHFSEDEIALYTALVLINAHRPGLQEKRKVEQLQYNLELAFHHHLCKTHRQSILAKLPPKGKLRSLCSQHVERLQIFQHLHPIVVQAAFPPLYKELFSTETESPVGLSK
In words: In vitro assay of inhibitory effect against RORγ transcriptional activity (GAL4-hRORγ LBD luciferase reporter gene assay in CHO cells). The format is cell-based. The note with it: for EC50: GAL4-hRORγ LBD / pG5-Luc in CHO cells, 2 days incubation; for hRORγ luciferase activity, %-of-control: value in parentheses beside the > EC50 bound, vehicle-control 0.2% DMSO alone = 100%. The procedure:
(§1) In Vitro Assay of Inhibitory Effect Against RORγ Transcriptional Activity
(§2) Inhibitory effect of a test article on transcriptional activity of RORγ was measured by means of the following reporter gene assay.
(§3) cDNA encoding human and mouse RORγ ligand binding domain (LBD) were obtained based on the sequences of human RORγ (Genebank registered number NM_005060.3) and mouse RORγ (Genebank registered number NM_011281.2) (LBD sequence: human RORγ, from Ser253 to Lys518; mouse RORγ, from Ile251 to Lys516).
(§4) The LBD cDNA of human or mouse RORγ was inserted into pFA-CMV vector (Strategene), which expresses GAL4-DNA binding domain fusion protein. The resulting plasmids are hereinafter referred to as GAL4-hRORγ plasmid and GAL4-mRORγ plasmid, respectively.
(§5) GAL4-hRORγ plasmid or GAL4-mRORγ plasmid was transiently co-transfected into Chinese hamster ovary cells (CHO cells) with pG5-Luc (Promega), a reporter plasmid expressing firefly luciferase depending on GAL4.
(§6) TransIT (Registered trademark) CHO transfection reagent (Mirus) was used to co-transfect GAL4-hRORγ plasmid or GAL4-mRORγ plasmid into CHO cells with pG5-Luc plasmid. One day before the assay, CHO cells were suspended in HAM F-12 Nutrient medium containing 10 v/v % fetal bovine serum and seeded at 6×10^6 cells per 175 cm^2 cell culture flask. Fifty four micro litters of TransIT (Registered trademark) CHO reagent was added into a 15 ml tube containing 1.16 mL of HAM F-12 Nutrient medium without fetal bovine serum, and mixed and incubated at room temperature for 10 min. Thirty six micro litters of plasmid solution containing the GAL4-hRORγ plasmid (400 ng), pG5-Luc plasmid (9000 ng) and pcDNA3 plasmid (8600 ng) were added into the tube and mixed gently. In case of mouse assay, a plasmid solution containing the GAL4-mRORγ plasmid (250 ng), pG5-Luc plasmid (9000 ng) and pcDNA3 plasmid (8750 ng) was added, instead. The mixture was incubated at room temperature for 10 min. Nine micro litters of CHO Mojo Reagent were then added into each tube and mixed gently. The mixture was incubated at room temperature for 10 min. The resultant transfection reagent was applied to the cell culture. After incubation at 37° C., 5% CO2 for 4 hours, the plasmid-transfected CHO cells were harvested with a trypsin treatment. The collected cells were resuspended in HAM F-12 Nutrient medium supplemented with 10 v/v % fetal bovine serum and plated into a 384-well-white plate at 8,000 cells/50 μL/well. The plate was incubated at room temperature for 1 hour and then further incubated at 37° C., 5% CO2 for 3 hours. The test articles were dissolved in dimethylsulfoxide (DMSO) to obtain a concentration of 10 mM. The resulting solution was diluted with a medium just before use and added to the cells in the plate to prepare 8 different concentrations of the test article. The final concentration of DMSO was 0.2 v/v %. After the addition of the test articles, the cells were incubated at 37° C., 5% CO2 for 2 days.
(§7) RORγ transcriptional activity was detected as the intracellular luciferase activity using SteadyLite HTS Reporter Gene Assay System (Perkin Elmer). StedyLite Reagent was diluted five-fold into a solution containing Extension reagent (10 mM Tricine, 0.2% w/v BSA, 0.02% v/v Tween-20) to obtain the luciferase substrate solution. After the measurement of the cell viability using Resazurin, the culture media in the plate were removed, and then the luciferase substrate solution was added into each well. After the incubation at room temperature for 10 minutes, luminescence of each well was measured by a microplate reader. The luciferase activity derived from the luminescence count in the vehicle-control well treated with 0.2% DMSO alone was defined as 100%, and the luciferase activity in the test article was calculated as a percentage (%-of-control) based on the value of the vehicle-control. EC50 value of test article was calculated by curve fitting with GraphPad Prism. […]

The next assay addresses T2, mouse RORγ (Mus musculus, UniProt P51450).
T2 construct: mouse RORγ, from Ile251 to Lys516; expressed in transfected cells; host or cells: CHO cells (Chinese hamster ovary), transient co-transfection with pG5-Luc
T2 sequence (P51450 251-516): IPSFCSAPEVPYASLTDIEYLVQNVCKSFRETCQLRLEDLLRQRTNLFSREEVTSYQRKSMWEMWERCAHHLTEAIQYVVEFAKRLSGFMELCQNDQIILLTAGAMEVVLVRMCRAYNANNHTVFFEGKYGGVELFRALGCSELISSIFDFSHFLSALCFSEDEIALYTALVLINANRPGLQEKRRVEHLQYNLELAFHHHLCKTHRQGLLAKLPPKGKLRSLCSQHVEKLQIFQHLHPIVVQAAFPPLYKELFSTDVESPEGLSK
In words: In vitro assay of inhibitory effect against RORγ transcriptional activity (GAL4-mRORγ LBD luciferase reporter gene assay in CHO cells). In kind it is cell-based. The note with it: for EC50: GAL4-mRORγ LBD / pG5-Luc in CHO cells, 2 days incubation; for mRORγ luciferase activity, %-of-control: value in parentheses beside the > EC50 bound, vehicle-control 0.2% DMSO alone = 100%. The procedure:
as §1, §2, §3, §4, §5, §6, §7
(In general: A reporter such as luciferase makes a cellular process visible.)

In general, EC50 refers to the concentration at which the effect is half-maximal.

Where only a bound is given, the exact number is not on record here.

For `CC(C)C1=CN(CCCC(=O)O)C(=O)NC1(C)c1ccc(OCCC(F)(F)F)cc1` (racemic) [Example 105], the EC50 on human RORγ was 2790 nM; on mouse RORγ, 1690 nM.
The corresponding values for `CC(C)Cc1ccc(C2(C)NC(=O)N(CCCC(=O)O)C=C2C(C)C)cc1` (racemic) [Example 106] are 1160 nM and 616 nM.
The corresponding values for `CCOC(=O)c1ccc(C2(C)NC(=O)N(CCC(=O)O)C=C2C(C)C)cc1Cl` (racemic) [Example 114] are 14900 nM and 11000 nM.
Regarding `CC(C)(C)C#Cc1ccc(C2NC(=O)N(CCCC(=O)O)C=C2C(C)(C)C)cc1Cl` (racemic) [Example 187], the EC50 at human RORγ was 172 nM; on mouse RORγ, 63 nM.
`CC(C)=Cc1ccc(C2(C)NC(=O)N(CCCC(=O)O)C=C2C(C)C)cc1` (racemic) [Example 188]: the concentration giving a half-maximal response (EC50) at human RORγ was determined as 2610 nM; on mouse RORγ, 1130 nM.
The corresponding values for `CC(C)(C)COc1ccc(C2NC(=O)N(CCCC(=O)O)C=C2C(C)(C)C)cc1Cl` (single isomer, unassigned) [Example 5, 4-{5-tert-butyl-4-[3-chloro-4-(2,2-dimethylpropoxy)-phenyl]-2-oxo-3,4-dihydro-2H-pyrimidin-1-yl}-butanoic Acid] are 34 nM and 24 nM.
In the case of `CC(C)(C)COc1ccc(C2NC(=O)N(CCCC(=O)O)C=C2C(C)(C)C)cc1Cl` (single isomer, unassigned) [Example 6], at human RORγ, the EC50 was greater than 8000 nM and the “hRORγ luciferase activity, %-of-control” value is given as “(76%)”. Moreover, on mouse RORγ, the EC50 was greater than 8000 nM and the “mRORγ luciferase activity, %-of-control” value is listed as “(75%)”.
On to `CC(C)(C)CCc1ccc(C2NC(=O)N(CCCC(=O)O)C=C2C(C)(C)C)cc1Cl` (single isomer, unassigned) [Example 10], for which the EC50 was found to be 9 nM at human RORγ and 17 nM on mouse RORγ.
Regarding `CC(C)(C)CCc1ccc(C2NC(=O)N(CCCC(=O)O)C=C2C(C)(C)C)cc1Cl` (single isomer, unassigned) [Example 11], on human RORγ, the EC50 is greater than 8000 nM and the “hRORγ luciferase activity, %-of-control” value is “(87%)”. On mouse RORγ, the 50% effective concentration (EC50) was greater than 8000 nM and the “mRORγ luciferase activity, %-of-control” value is given as “(79%)”.
With `CC(C)C1=CN(CCCC(=O)O)C(=O)NC1(C)c1ccc(OCC(C)(C)C)c(Cl)c1` (single isomer, unassigned) [Example 12], the concentration giving a half-maximal response (EC50) at human RORγ was determined as 23 nM; at mouse RORγ, 17 nM.
As to `CC(C)C1=CN(CCCC(=O)O)C(=O)NC1(C)c1ccc(OCC(C)(C)C)c(Cl)c1` (single isomer, unassigned) [Example 13], the EC50 at human RORγ is 6570 nM; at mouse RORγ it was 5930 nM.
The corresponding values for `CC(C)C1=CN(CCC(C)C(=O)O)C(=O)NC1(C)c1ccc(OCC(C)(C)C)c(Cl)c1` (single isomer, unassigned) [Example 19] are 2290 nM and 1210 nM.
The matching figures for `CC(C)C1=CN(CCC(C)C(=O)O)C(=O)NC1(C)c1ccc(OCC(C)(C)C)c(Cl)c1` (single isomer, unassigned) [Example 20]: 2930 nM and 2520 nM.
As to `CC(C)C1=CN(CCC(C)C(=O)O)C(=O)NC1(C)c1ccc(CCC(C)(C)C)c(Cl)c1` (single isomer, unassigned) [Example 24], the half-maximal effective concentration (EC50) amounted to 2940 nM at human RORγ and 2930 nM at mouse RORγ.
Take `CC(C)C1=CN(CCC(C)C(=O)O)C(=O)NC1(C)c1ccc(CCC(C)(C)C)c(Cl)c1` (single isomer, unassigned) [Example 25]: the concentration for a half-maximal effect (EC50) at human RORγ and at mouse RORγ was less than 32 nM throughout.
On to `CCC(C)C1=CN(CCCC(=O)O)C(=O)NC1(C)c1ccc(CCC(C)(C)C)c(Cl)c1` (single isomer, unassigned) [Example 33], for which the EC50 on human RORγ came to 435 nM; at mouse RORγ, 617 nM.
The corresponding values for `CCC(C)C1=CN(CCCC(=O)O)C(=O)NC1(C)c1ccc(CCC(C)(C)C)c(Cl)c1` (single isomer, unassigned) [Example 34] are 13 nM and 21 nM.
Turning to `CC(C)C1=CN(CCOCC(=O)O)C(=O)NC1(C)c1ccc(CCC(C)(C)C)c(Cl)c1` (single isomer, unassigned) [Example 39], the EC50 was determined as 20 nM at human RORγ and 26 nM at mouse RORγ.
The corresponding values for `CC(C)C1=CN(CCOCC(=O)O)C(=O)NC1(C)c1ccc(CCC(C)(C)C)c(Cl)c1` (single isomer, unassigned) [Example 40] are 152 nM and 198 nM.
In the case of `CC(C)C1=CN(C2CCC(C(=O)O)C2)C(=O)N[C@]1(C)c1ccc(CCC(C)(C)C)c(Cl)c1` (single isomer, unassigned) [Example 63], at human RORγ, the EC50 is greater than 8000 nM and the “hRORγ luciferase activity, %-of-control” value is “(51%)”. Also, on mouse RORγ, the EC50 is greater than 8000 nM and the “mRORγ luciferase activity, %-of-control” value was “(70%)”.
Turning to `CC(C)C1=CN(C2CCC(C(=O)O)C2)C(=O)N[C@@]1(C)c1ccc(CCC(C)(C)C)c(Cl)c1` (single isomer, unassigned) [Example 64], the figures for the EC50 on human RORγ and on mouse RORγ were 19 nM and 16 nM, respectively.
The matching figures for `CC(C)(C)CCc1ccc(C2NC(=O)N([C@H]3C[C@H](C(=O)O)C3)C=C2C(C)(C)C)cc1Cl` (single isomer, unassigned) [Example 101]: 32 nM and 21 nM.
Consider `CC(C)(C)CCc1ccc(C2NC(=O)N([C@H]3C[C@H](C(=O)O)C3)C=C2C(C)(C)C)cc1Cl` (single isomer, unassigned) [Example 102], for which, on human RORγ, the EC50 was greater than 8000 nM and the “hRORγ luciferase activity, %-of-control” value is listed as “(76%)”. Besides, at mouse RORγ, the concentration for a half-maximal effect (EC50) is greater than 8000 nM and the “mRORγ luciferase activity, %-of-control” value is reported as “(76%)”.
As for `CC(C)C1=CN([C@H]2C[C@H](CC(=O)O)C2)C(=O)N[C@]1(C)c1ccc(CCC(C)(C)C)c(Cl)c1` (single isomer, unassigned) [Example 107], the concentration giving a half-maximal response (EC50) at human RORγ was found to be 3930 nM; on mouse RORγ it was 1980 nM.
The matching figures for `CC(C)(C)CCc1ccc(C2(C)NC(=O)NC=C2C(C)(C)CCC(=O)O)cc1Cl` (single isomer, unassigned) [Example 130, 4-{4-[3-chloro-4-(3,3-dimethyl-butyl)-phenyl]-4-methyl-2-oxo-1,2,3,4-tetrahydro-pyrimidin-5-yl}-4-methyl-pentanoic Acid]: 10 nM and 19 nM.
